Source: paper PMC4274986 (Journal of Molecular Recognition, 2014)

Test system: Streptavidin-R-phycoerythrin (SAPE)
Format: binding

FTSSPSKHPQVEAGV [R441]
SAPE binding median fluorescence vs unlabeled controls: comparable to the unlabeled controls
